The values that follow come from patent US20010051179A1, “METHOD FOR PREVENTING THE SPREAD OF INFECTIOUS MICROORGANISMS USING CYANOACRYLATE” (priority 1996, published 2001).

Assay [1] concerns Herpes Simplex virus. Put plainly: Twice-daily coating of open Herpes Simplex lip sores with cyanoacrylate (case reports). Type of assay: in vivo, human. An excerpt:
A person had open sores on their lower lip from which a clear liquid was exuding. The sores were diagnosed as resulting from the Herpes Simplex virus. Their initial office treatment consisted of swabbing the open sores with n-butyl-cyanoacrylate using a surgical swab until the sores and surrounding tissue were completely covered. They were given a supply of n-butyl-cyanoacrylate and surgical paddles for self-application and instructed on their use. They were cautioned not to close their lips or press them together after applying the n-butyl-cyanoacrylate for two to three minutes so that the coating over the sores would be completely dry.
An individual had open sores on their lip from which a clear liquid was exuding. The sores were diagnosed as Herpes Simplex virus.
An individual had open sores on their lip from which a clear liquid was exuding. The sores were diagnosed as resulting from the Herpes Simplex virus. They were instructed to coat the sores with 2 acetyl cyanoacrylate using a surgical swab until the sores and surrounding tissue were completely covered.
An individual had open sores on their lip from which a clear liquid was exuding. The sores were diagnosed as resulting from the Herpes Simplex virus. They were instructed to coat the sores with octyl-cyanoacrylate using a surgical swab until the sores and surrounding tissue were completely covered.

In assay [2] the test system is Herpes Simplex virus. Briefly: Twice-daily coating of a Herpes Simplex prodrome on the lip with cyanoacrylate (case report). Type of assay: in vivo, human. To be noted: itching prodrome on lower lip, topical coating twice daily for three days. The text has this: Before the open Herpes sore forms, an area where the sore will form becomes sensitive and itchy, and is known as a prodrome. The application of cyanoacrylate to the prodrome prevents the sore from forming. The cyanoacrylate can also be applied in the same manner as previously described to the prodrome.
A person had itching on their lower lip. The itching was diagnosed as resulting from a prodrome of the Herpes Simplex virus. Their initial office treatment consisted of being told to swab the prodrome with n-butyl-cyanoacrylate using a surgical swab until the prodrome and surrounding tissue were completely covered. They were given a supply of n-butyl-cyanoacrylate and surgical paddles for self-application and instructed on their use.

The mark [3] stands for this setting: topical coating twice daily for three days.

Turning to 2 acetyl cyanoacrylate, the “state of the open sores (exudation of clear liquid) at end of treatment” value (shortened to “state of the open sores”) in the assay on Herpes Simplex virus [1] (setting [3]) is recorded as “no longer exuding”.

On to `C=C(C#N)C(=O)OCC` [ethyl cyanoacrylate], for which the “state of the open sores” value with Herpes Simplex virus [1] (topical coating twice daily for several days) was “no longer exudating”.

`C=C(C#N)C(=O)OCCCC` [n-butyl-cyanoacrylate]: in the assay on Herpes Simplex virus [1] (setting [3]), the “state of the open sores” value is “no longer exudating”. Besides, the “outcome of prodrome (sore formation)” value in the assay on Herpes Simplex virus [2] was “prodrome disappeared and no sores formed or exuded”.

For the molecule `C=C(C#N)C(=O)OCCCCCCCC` [octyl-cyanoacrylate], the “state of the open sores” value with Herpes Simplex virus [1] (setting [3]) is “no longer exuding”.
